Laboratory results: US20220401564A1 (DANA-FARBER CANCER INSTITUTE, INC., priority 2019, published 2022)

Key:
Format in all cases: biochemical
HDAC1 = target: T1, HDAC1 (Homo sapiens, UniProt Q13547); assay: HDAC enzymatic assay (Reaction Biology), fluorogenic substrate
T1 construct: purchased Reaction Biology
Experimental: (§1) Compounds 2 and 9 were tested in an enzymatic assay from Reaction Biology® against HDAC isoforms.
(§2) Base Reaction buffer: 50 mM Tris-HCl, pH8.0, 137 mM NaCl, 2.7 mM KCl, and 1 mM MgCl2. Add fresh: 1 mg/ml BSA, 1% DMSO
(§3) Fluorogenic HDAC General Substrate (HDAC1, HDAC2, HDAC3, HDAC6, HDAC10, and HDAC11): 50 μM, Arg-His-Lys-Lys(Ac)-AMC
(§4) 1. Delivered 2X enzyme in wells of reaction plate except in the control wells and added buffer to control wells. 2. Delivered compounds in 100% DMSO into the enzyme mixture by Acoustic technology (Echo550; nanoliter range). Spin down and pre-incubation. 3. Delivered 2X Substrate Mixture (Fluorogenic HDAC Substrate and co-factor if applicable) in all reaction wells to initiate the reaction. Spin and shake. 4. Incubated for 30 min for Class 2A, 1 h for HDAC1, 2, 3, and 6, and 2 h for the rest of HDAC isoforms and SIRTs at 30° C. with seal.
(§5) 5. Added Developer with Trichostatin A (or Nicotinamide for SIRTs) to stop the reaction and to generate fluorescent color. 6. The fluorescence that was generated was detected with excitation (Ex) at […] and emission (Em) at 460 nM by the EnVision Multilabel Plate Reader (PerkinElmer®, Santa Clara, Calif., USA).
(§6) IC50 values were derived from a 10-dose response curve. As shown in Tables 1-2, the addition of a linker and CRBN targeting group altered the isoform selectivity of the SAHA-based degrader compounds.

HDAC2 = target: T2, HDAC2 (Homo sapiens, UniProt Q92769); assay: as above
T2 construct: purchased Reaction Biology
T2 sequence (Q92769 whole entry): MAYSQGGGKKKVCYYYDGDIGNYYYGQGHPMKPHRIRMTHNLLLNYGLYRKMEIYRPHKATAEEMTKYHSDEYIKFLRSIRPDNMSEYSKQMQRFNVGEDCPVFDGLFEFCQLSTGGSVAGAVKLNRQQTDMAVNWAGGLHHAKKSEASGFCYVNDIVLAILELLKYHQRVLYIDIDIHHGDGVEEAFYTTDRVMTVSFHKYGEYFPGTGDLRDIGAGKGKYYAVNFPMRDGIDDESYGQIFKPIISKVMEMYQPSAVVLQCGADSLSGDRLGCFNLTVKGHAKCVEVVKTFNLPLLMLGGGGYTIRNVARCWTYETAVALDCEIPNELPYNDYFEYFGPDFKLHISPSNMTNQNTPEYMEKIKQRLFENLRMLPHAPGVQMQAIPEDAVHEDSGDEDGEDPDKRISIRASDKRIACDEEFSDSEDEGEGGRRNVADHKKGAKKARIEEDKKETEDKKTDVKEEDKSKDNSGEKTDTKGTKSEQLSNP
Experimental: as §1, §2, §3, §4, §5, §6

HDAC3 = HDAC3 (Homo sapiens, UniProt O15379); assay: as above; set-up: purchased Reaction Biology
Sequence of HDAC3 (O15379 whole entry): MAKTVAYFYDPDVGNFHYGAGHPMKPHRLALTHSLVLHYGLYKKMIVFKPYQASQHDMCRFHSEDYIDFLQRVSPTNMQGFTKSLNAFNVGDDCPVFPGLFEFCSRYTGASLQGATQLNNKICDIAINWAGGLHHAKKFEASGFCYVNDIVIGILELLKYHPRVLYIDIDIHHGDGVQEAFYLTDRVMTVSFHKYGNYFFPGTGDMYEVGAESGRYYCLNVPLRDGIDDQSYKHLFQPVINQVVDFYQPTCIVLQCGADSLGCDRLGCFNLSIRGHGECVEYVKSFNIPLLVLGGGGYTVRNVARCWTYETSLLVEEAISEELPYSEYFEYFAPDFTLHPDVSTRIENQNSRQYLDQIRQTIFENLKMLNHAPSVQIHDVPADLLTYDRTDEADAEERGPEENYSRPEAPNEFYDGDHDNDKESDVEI
Sequence of HDAC3 (Q9Y618 395-489 partner limits assumed): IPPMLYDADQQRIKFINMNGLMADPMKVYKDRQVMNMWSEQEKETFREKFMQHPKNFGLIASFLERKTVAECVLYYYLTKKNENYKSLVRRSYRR
Experimental: as §1, §2, §3, §4, §5, §6

HDAC6 = target: T3, HDAC6 (Homo sapiens, UniProt Q9UBN7); assay: as above; set-up: purchased Reaction Biology
T3 sequence (Q9UBN7 1-1215): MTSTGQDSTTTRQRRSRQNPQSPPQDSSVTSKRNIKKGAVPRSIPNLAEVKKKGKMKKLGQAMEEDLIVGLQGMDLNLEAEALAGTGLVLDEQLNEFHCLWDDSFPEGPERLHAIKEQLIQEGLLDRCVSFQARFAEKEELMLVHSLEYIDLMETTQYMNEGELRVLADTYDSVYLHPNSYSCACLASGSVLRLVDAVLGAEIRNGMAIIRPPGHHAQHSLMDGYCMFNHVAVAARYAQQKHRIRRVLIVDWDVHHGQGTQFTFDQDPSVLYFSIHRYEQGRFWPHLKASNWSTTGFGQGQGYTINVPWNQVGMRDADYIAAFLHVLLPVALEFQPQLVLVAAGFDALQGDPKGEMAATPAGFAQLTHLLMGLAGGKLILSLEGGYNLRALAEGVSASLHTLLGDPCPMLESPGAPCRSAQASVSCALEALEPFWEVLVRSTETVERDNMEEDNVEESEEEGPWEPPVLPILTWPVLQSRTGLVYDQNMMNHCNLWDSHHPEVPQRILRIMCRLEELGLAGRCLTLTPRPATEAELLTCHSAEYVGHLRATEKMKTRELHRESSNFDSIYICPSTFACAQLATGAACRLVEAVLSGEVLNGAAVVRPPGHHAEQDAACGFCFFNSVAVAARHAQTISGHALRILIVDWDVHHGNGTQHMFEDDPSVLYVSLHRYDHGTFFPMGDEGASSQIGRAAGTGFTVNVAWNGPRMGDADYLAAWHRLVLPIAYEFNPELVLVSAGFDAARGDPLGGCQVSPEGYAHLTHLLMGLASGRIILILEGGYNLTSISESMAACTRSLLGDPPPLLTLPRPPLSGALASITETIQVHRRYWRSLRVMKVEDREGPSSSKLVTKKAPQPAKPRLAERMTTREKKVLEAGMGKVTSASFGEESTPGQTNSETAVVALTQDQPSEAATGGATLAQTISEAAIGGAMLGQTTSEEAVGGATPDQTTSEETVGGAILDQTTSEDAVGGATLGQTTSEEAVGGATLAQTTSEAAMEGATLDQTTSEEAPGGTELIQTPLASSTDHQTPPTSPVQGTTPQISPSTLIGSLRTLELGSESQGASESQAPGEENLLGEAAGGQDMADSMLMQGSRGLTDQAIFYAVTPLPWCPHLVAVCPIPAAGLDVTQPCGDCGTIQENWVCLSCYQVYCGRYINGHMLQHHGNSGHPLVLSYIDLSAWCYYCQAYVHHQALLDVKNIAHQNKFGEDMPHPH
Experimental: as §1, §2, §3, §4, §5, §6

HDAC8 = target: T4, HDAC8 (Homo sapiens, UniProt Q9BY41); assay: HDAC enzymatic assay (Reaction Biology), HDAC8 substrate; set-up: purchased Reaction Biology
T4 sequence (Q9BY41 1-377): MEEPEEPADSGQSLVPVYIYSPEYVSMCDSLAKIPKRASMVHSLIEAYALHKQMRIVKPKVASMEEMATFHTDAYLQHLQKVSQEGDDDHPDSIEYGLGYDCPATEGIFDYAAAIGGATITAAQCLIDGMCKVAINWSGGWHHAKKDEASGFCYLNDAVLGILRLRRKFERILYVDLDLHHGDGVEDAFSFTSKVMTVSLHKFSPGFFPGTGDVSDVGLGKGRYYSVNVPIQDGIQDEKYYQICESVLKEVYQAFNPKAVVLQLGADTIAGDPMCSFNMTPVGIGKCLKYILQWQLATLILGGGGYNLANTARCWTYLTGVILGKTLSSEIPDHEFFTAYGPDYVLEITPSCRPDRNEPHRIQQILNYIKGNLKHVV
Experimental: as §1, §2
(HDAC8 only substrate: 50 μM, Arg-His-Lys(Ac)-Lys(Ac))-AMC
as §4, §5, §6

T1 sequence (Q13547 whole entry): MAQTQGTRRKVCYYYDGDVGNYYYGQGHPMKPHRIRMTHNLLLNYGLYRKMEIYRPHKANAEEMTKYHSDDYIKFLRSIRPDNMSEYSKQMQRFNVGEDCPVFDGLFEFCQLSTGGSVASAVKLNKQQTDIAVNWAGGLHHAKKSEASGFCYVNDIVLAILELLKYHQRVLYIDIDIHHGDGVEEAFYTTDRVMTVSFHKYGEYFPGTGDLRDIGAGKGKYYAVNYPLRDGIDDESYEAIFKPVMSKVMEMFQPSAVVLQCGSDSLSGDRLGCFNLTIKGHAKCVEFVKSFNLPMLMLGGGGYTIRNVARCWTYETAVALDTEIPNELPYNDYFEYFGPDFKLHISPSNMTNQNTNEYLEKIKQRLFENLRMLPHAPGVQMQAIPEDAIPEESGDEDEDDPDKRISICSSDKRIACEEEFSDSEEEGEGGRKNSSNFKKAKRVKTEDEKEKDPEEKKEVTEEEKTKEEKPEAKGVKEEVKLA

inhibition of HDAC1 deacetylase activity in vitro (in words) (HDAC1): Moderate inhibition
IC50 (HDAC1; 10-dose response curve, read-out: Compound IC50 (M), HDAC1): 4.81e-07 M
inhibition of HDAC2 deacetylase activity in vitro (in words) (HDAC2): Moderate inhibition
IC50 (HDAC2; 10-dose response curve, read-out: Compound IC50 (M), HDAC2): 1.03e-06 M
inhibition of HDAC3 deacetylase activity in vitro (in words) (HDAC3): Moderate inhibition
IC50 (HDAC3; 10-dose response curve, read-out: Compound IC50 (M), HDAC3): 5.77e-07 M
inhibition of HDAC6 activity in vitro (in words) (HDAC6): potently inhibited
IC50 (HDAC6; 10-dose response curve, read-out: Compound IC50 (M), HDAC6): 7.85e-08 M
inhibition of HDAC8 deacetylase activity in vitro (in words) (HDAC8): Moderate inhibition
IC50 (HDAC8; 10-dose response curve, read-out: Compound IC50 (M), HDAC8): 1.16e-06 M
Structure (SMILES): Cc1ncsc1-c1ccc([C@H](C)NC(=O)[C@@H]2C[C@@H](O)CN2C(=O)[C@@H](NC(=O)CCOCCOCCN(CCc2c[nH]c3ccccc23)Cc2ccc(/C=C/C(=O)NO)cc2)C(C)(C)C)cc1 [Compound 2, (2S,4R)-1-((S)-14-(tert-butyl)-3-(4-((E)-3-(hydroxyamino)-3-oxoprop-1-en-1-yl)benzyl)-1-(1H-indol-3-yl)-12-oxo-6,9-dioxa-3,13-diazapentadecan-15-oyl)-4-hydroxy-N—((S)-1-(4-(4-methylthiazol-5-yl)phenyl)ethyl)pyrrolidine-2-carboxamide]
